{"source": "patent US20220098196A1", "about": "“TRAPPING-FREE PARP INHIBITORS” (The Board of Regents of the University of Texas System, priority 2019, published 2022)", "key": {"PARP1 [1]": {"molecular_target": "T1, PARP1 (Homo sapiens, UniProt P09874)", "T1 sequence (P09874 whole entry)": "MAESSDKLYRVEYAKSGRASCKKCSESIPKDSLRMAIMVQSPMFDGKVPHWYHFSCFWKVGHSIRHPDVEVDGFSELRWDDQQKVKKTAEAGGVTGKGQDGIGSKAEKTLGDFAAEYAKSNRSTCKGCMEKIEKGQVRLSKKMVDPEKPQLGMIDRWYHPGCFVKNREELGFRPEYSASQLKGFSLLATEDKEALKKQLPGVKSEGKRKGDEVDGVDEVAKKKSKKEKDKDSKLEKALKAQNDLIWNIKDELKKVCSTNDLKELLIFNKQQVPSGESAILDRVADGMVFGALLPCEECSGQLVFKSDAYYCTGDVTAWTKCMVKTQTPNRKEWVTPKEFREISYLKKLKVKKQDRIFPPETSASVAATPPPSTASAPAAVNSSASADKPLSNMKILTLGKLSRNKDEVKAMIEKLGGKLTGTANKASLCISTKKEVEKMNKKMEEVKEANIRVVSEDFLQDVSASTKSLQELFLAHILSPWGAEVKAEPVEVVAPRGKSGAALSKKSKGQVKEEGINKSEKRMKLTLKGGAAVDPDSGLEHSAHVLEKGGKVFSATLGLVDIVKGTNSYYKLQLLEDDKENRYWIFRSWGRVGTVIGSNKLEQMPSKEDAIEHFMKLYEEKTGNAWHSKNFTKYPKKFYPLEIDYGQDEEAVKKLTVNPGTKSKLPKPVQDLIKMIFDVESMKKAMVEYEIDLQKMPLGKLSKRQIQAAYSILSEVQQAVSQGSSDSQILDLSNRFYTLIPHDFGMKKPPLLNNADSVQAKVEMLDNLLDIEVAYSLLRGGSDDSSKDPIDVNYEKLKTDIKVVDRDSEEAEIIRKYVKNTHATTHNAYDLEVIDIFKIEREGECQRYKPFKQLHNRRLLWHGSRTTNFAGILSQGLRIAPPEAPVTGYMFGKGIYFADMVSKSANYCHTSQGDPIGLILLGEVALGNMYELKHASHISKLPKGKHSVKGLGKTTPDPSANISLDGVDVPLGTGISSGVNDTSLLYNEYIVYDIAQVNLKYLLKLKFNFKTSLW", "assay": "PARP1 degradation in VHL-proficient (BT-549, PC-3) and VHL-deficient (786-O) cells (immunoblotting)", "assay_type": "cell-based", "parameters": "host or cells: MDA-MB-468; BT-549; PC-3; 786-O", "details": "24 hours", "method": "(§1) Immunoblotting. Cells were washed once with cold PBS and lysed with the SDS lysis buffer (1% SDS, 10 mM HEPES pH 7.0, 2 mM MgCl2, 500 U universal nuclease). Protein concentrations were determined by the BCA assay kit (Thermo Fisher Scientific). A total of 20 μg proteins (40 μg proteins for PAR immunoblotting experiments) were loaded onto the SDS-PAGE gel and were then transferred to a nitrocellulose membrane. Nitrocellulose membranes were then blocked with the TBST buffer containing 5% milk (Bio-Rad). Membranes were incubated with the primary antibodies overnight at 4° C. and the secondary antibodies for 1 hour at room temperature (RT). The blots were developed using enhanced chemiluminescence and were exposed on autoradiograph films."}, "PARP1 [2]": {"molecular_target": "T1, PARP1", "assay": "PARP1 degradation in HeLa cells (immunoblotting)", "assay_type": "cell-based", "parameters": "host or cells: HeLa", "details": "24 hours; for effect on iRucaparib-induced PARP1 degradation: iRucaparib 5 μM plus MG132 (1 μM), Rucaparib (1 μM) or increasing pomalidomide; for PARP1 degradation: increasing concentrations", "method": "as §1"}, "PARP1 [3]": {"molecular_target": "T1, PARP1", "assay": "PARP1 trapping in HeLa cells (subcellular fractionation, chromatin-bound fraction)", "assay_type": "cell-based", "parameters": "host or cells: HeLa", "details": "5 μM for all compounds, MMS 0.01%", "description": "Subcellular Proteins Extraction. […] The cytosolic proteins were isolated by incubating the cells with the CEB buffer for 10 min at 4° C., and centrifuged at 500 g for 5 min. The membrane proteins were isolated by incubating the pellet from previous step with the MEB buffer for 10 min at 4° C., and centrifuged at 3000 g for 5 min. The soluble nuclear proteins were isolated by incubating the pellet from previous step with the NEB buffer for 30 min at 4° C., and centrifuged at 5000 g for 5 min. The chromatin bound proteins were isolated by incubating the pellet from previous step with the NEB buffer supplemented with nuclease for 15 min at RT and centrifuged at 16000 g for 5 min. Protein concentrations were determined by the BCA assay kit."}, "PARP1 [4]": {"molecular_target": "T1, PARP1", "assay": "In Vitro PARP1 Activity Assay (PARP universal chemiluminescent assay kit)", "assay_type": "biochemical", "details": "in vitro", "description": "In Vitro PARP1 Activity Assay. […] Briefly, the histone-coated strip wells were hydrated with the assay buffer for 30 min. The various compounds were added and were incubated with the PARP enzyme for 10 min. The reaction cocktail containing biotinylated NAD^+ was then added into the system, which was incubated for 1 hour to activate PARP1. After the reaction, the wells were washed twice with 0.1% Triton X-100/PBS and twice with PBS. The wells were incubated with Strep-HRP for another hour and were washed again as described above. PeroxyGlow reagents were mixed and added into the strip wells, and the biotin signal on coated histone was immediately measured with chemiluminescence on a Synergy microplate reader (Bio-Tek). The well without PARP1, and the well with PARP1 only was used as the negative (0%) and positive (100%) control, respectively."}, "PARP1 [5]": {"molecular_target": "T1, PARP1", "assay": "TMT quantitative proteomics in BT-549 cells, PARP1", "assay_type": "cell-based", "details": "iRucaparib 5 μM or VHL-Rucaparib 20 μM, 24 hours, 8,207 quantified proteins", "excerpt": "Quantitative Mass Spectrometry.\nProteins were then extracted using methanol-chloroform precipitation.\nThe maximum intensity of each reporter ion was extracted."}, "ZFP91": {"molecular_target": "ZFP91 (Homo sapiens, UniProt Q96JP5+Q96SW2)", "sequence (Q16531 2-1140)": "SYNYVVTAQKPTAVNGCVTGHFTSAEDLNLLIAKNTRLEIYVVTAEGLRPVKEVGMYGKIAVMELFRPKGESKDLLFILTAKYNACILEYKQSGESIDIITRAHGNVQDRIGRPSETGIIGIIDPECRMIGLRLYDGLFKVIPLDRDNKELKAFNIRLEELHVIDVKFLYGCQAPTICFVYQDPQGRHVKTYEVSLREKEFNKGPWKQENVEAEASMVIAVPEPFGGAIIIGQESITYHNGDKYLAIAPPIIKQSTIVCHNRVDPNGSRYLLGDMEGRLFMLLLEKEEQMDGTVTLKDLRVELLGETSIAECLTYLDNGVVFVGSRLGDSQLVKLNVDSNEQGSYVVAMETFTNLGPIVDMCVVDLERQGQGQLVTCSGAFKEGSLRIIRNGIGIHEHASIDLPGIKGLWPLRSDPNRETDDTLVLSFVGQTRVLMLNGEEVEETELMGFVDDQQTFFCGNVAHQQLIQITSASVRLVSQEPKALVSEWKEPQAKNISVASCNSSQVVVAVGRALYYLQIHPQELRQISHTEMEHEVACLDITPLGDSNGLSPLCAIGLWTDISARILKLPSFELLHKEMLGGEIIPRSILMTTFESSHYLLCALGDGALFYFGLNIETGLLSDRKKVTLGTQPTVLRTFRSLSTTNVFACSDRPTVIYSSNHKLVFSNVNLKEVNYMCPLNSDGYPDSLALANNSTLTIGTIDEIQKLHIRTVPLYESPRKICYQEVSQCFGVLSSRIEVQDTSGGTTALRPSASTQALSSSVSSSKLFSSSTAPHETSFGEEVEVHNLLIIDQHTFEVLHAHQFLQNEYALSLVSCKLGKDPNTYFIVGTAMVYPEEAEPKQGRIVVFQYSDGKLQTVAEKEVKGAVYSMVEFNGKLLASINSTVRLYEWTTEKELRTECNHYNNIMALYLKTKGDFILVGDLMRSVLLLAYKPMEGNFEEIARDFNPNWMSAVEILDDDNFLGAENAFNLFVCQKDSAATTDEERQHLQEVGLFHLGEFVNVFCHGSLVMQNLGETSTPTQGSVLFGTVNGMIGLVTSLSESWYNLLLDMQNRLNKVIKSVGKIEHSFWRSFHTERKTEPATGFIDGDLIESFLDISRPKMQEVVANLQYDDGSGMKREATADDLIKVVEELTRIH", "sequence (Q96SW2 whole entry)": "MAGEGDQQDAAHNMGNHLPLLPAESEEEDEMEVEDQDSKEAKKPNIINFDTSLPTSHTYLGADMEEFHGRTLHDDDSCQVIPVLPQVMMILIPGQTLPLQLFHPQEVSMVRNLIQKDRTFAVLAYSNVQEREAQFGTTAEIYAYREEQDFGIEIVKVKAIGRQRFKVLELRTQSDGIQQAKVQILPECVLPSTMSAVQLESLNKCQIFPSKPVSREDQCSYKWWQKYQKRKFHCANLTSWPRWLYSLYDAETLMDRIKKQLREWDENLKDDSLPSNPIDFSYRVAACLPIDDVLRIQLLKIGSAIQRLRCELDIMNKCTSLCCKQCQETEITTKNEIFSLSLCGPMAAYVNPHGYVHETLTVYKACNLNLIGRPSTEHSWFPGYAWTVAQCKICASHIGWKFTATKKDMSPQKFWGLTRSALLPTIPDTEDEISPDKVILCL", "sequence (Q96JP5 2-570)": "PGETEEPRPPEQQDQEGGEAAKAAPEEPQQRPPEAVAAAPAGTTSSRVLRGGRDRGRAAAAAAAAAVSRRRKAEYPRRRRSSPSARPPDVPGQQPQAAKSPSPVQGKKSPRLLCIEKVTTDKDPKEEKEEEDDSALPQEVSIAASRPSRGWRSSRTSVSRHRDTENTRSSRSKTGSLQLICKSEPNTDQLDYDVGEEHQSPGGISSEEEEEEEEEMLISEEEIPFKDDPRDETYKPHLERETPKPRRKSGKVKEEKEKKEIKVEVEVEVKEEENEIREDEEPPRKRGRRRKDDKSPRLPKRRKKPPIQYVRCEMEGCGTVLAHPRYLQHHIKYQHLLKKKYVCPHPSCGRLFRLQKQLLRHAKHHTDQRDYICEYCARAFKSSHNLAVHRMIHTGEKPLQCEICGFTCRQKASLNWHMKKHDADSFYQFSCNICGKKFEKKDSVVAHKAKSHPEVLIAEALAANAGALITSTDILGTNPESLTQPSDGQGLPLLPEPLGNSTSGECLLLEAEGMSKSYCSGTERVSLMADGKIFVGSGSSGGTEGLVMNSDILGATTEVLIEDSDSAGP", "assay": "TMT quantitative proteomics in BT-549 cells, ZFP91", "assay_type": "cell-based", "parameters": "host or cells: HeLa; BT-549", "details": "VHL-Rucaparib 20 μM, 24 hours", "description": "Quantitative Mass Spectrometry. […] Two biological replicate samples were prepared for each treatment condition. Cells were washed with cold PBS and lysed using the SDS lysis buffer. Protein concentrations were determined by the BCA assay (Thermo Fisher Scientific). For each sample, 500 μg of protein was used for the subsequent TMT experiments^34.\nFor the TMT experiments, proteins were reduced with 2 mM DTT for 10 min and alkylated with 50 mM iodoacetamide for 30 min in dark. Proteins were then extracted using methanol-chloroform precipitation. Protein pellets were dissolved in 400 μL 8 M Urea buffer (8 M urea, 50 mM Tris-HCl, 10 mM EDTA, pH 7.5) and were digested by Lys-C (Wako, at a 1:100 enzyme/protein ratio) for 2 hours at RT. The urea concentration was then reduced to 2 M using freshly made 100 mM ammonium bicarbonate solution. […]\nSamples were desalted and fractioned by bRPLC (basic pH reversed phase HPLC) on a ZORBAX 300 Extend-C18 column (Narrow Bore RR 2.1 mm×100 mm, 3.5 μm particle size, 300 Å pore size). […] Samples were then analyzed on an Orbitrap Elite mass spectrometer (Thermo Fisher Scientific) using a top 15 HCD (higher-energy collisional dissociation) method.\nThe maximum intensity of each reporter ion was extracted. For each reporter ion channel, the observed signal-to-noise ratio was summed across all quantified proteins and was normalized."}, "[6]": {"details": "Phase III, patients taking pomalidomide and dexamethasone vs. dexamethasone alone; p=0.0002; cited from earlier work"}}, "note": "Where a SMILES comes first, the peptide text is derived from it. The star is where a group is joined. Cbz = O=C(OCc1ccccc1)*", "data": [{"compound": "CC(C)C[C@@H](C=O)NC(=O)[C@H](CC(C)C)NC(=O)[C@H](CC(C)C)NC(=O)OCc1ccccc1", "note": "[MG132, reference compound] (Cbz-Leu-Leu-Leu-aldehyde)", "values": [{"measurement": "effect on VHL-Rucaparib-induced PARP1 degradation", "setting": "PARP1 [1]; PC-3 cells, VHL-Rucaparib 10 μM plus MG-132 1 μM", "result": "could be rescued by MG-132 treatment"}, {"measurement": "effect on iRucaparib-induced PARP1 degradation", "setting": "PARP1 [2]", "result": "completely blocked"}]}, {"compound": "NC(=O)c1cccc2cn(-c3ccc([C@@H]4CCCNC4)cc3)nc12", "note": "[Niraparib]", "values": [{"measurement": "potency in PARP1 trapping (rank order)", "setting": "PARP1 [3]", "result": "BMN673>Niraparib>Olaparib>Rucaparib>Veliparib"}]}, {"compound": "CN(CCCCc1cn(CCOCCNc2cccc3c2C(=O)N(C2CCC(=O)NC2=O)C3=O)nn1)Cc1ccc(-c2[nH]c3cc(F)cc4c3c2CCNC4=O)cc1", "note": "(centres unmarked) [PEG1, Rucaparib-Triazole-PEG1-Pomalidomide]", "values": [{"measurement": "PARP1 degradation", "setting": "PARP1 [2]", "result": "not able to degrade PARP1"}, {"measurement": "biochemical (catalytic) inhibition of PARP1", "setting": "PARP1 [4]", "result": "maintained catalytic inhibitory activity against PARP1"}]}, {"compound": "CN(CCCCc1cn(CCOCCOCCNc2cccc3c2C(=O)N(C2CCC(=O)NC2=O)C3=O)nn1)Cc1ccc(-c2[nH]c3cc(F)cc4c3c2CCNC4=O)cc1", "note": "(centres unmarked) [PEG2, Rucaparib-Triazole-PEG2-Pomalidomide]", "values": [{"measurement": "PARP1 degradation", "setting": "PARP1 [2]", "result": "not able to degrade PARP1"}, {"measurement": "biochemical (catalytic) inhibition of PARP1", "setting": "PARP1 [4]", "result": "maintained catalytic inhibitory activity against PARP1"}]}, {"compound": "CN(CCCCc1cn(CCOCCOCCOCCOCCNc2cccc3c2C(=O)N(C2CCC(=O)NC2=O)C3=O)nn1)Cc1ccc(-c2[nH]c3cc(F)cc4c3c2CCNC4=O)cc1", "note": "(centres unmarked) [PEG4 PROTAC, Rucaparib-Triazole-PEG4-Pomalidomide]", "values": [{"measurement": "PARP1 degradation", "setting": "PARP1 [2]", "result": "able to degrade PARP1 as efficiently as iRucaparib"}]}, {"compound": "Cc1ncsc1-c1ccc(CNC(=O)[C@@H]2C[C@@H](O)CN2C(=O)[C@@H](NC(=O)CCOCCOCCOCCOCCn2cc(CCCCN(C)Cc3ccc(-c4[nH]c5cc(F)cc6c5c4CCNC6=O)cc3)nn2)C(C)(C)C)cc1", "note": "[VHL-Rucaparib, Rucaparib-Triazole-PEG4-VHL-Ligand]", "values": [{"measurement": "PARP1 downregulation", "setting": "PARP1 [5]", "result": "one of the most significantly downregulated proteins"}, {"measurement": "PARP1 degradation", "setting": "PARP1 [1]; BT549 cells, iRucaparib 5 μM or VHL-Rucaparib 20 μM", "result": "robust PARP1 degradation"}, {"measurement": "PARP1 level", "setting": "PARP1 [1]; BT-549 cells (VHL-proficient)", "result": "successfully downregulated"}, {"measurement": "PARP1 level", "setting": "PARP1 [1]; PC-3 cells (VHL-proficient), 10 μM", "result": "successfully downregulated"}, {"measurement": "ZFP91 abundance change", "setting": "ZFP91", "result": "did not show any changes"}]}, {"compound": "C[C@]1(c2nc3c(C(N)=O)cccc3[nH]2)CCCN1", "note": "[Veliparib]", "values": [{"measurement": "potency in PARP1 trapping (rank order)", "setting": "PARP1 [3]", "result": "BMN673>Niraparib>Olaparib>Rucaparib>Veliparib"}]}, {"compound": "Nc1cccc2c1C(=O)N(C1CCC(=O)NC1=O)C2=O", "note": "(centres unmarked) [pomalidomide, reference compound]", "values": [{"measurement": "overall survival (median)", "setting": "[6]", "result": 11.9, "unit": "months"}, {"measurement": "effect on PARP1 protein levels", "setting": "PARP1 [2]; 5 μM", "result": "had no effect on PARP1 protein levels"}, {"measurement": "effect on iRucaparib-induced PARP1 degradation", "setting": "PARP1 [2]", "result": "block PARP1 degradation"}]}]}
